Experimental data reported in patent US4376780A, “Novel phenethylamine derivatives and bronchdilator containing the same” (Eisai Co., Ltd., priority 1976, dated 1983).
“Also recorded” adds a separate entry of the source. Counter-ions that a name gives are not always drawn. Like-named read-outs stand apart in the source and are kept apart here.

Legend:
[1] = test system: asthmatous fit caused by the histamine spray; experiment: Protecting effect against the dyspnea (asthmatous fit) caused by histamine spray, guinea pigs, oral; assay type: in vivo, guinea pigs of Hartley strain; details: for ED50: Cavia porcellus, read-out: ED 50, protecting effect on the asthmatous fit caused by the histamine spray; for protecting effect relative to the two controls, salbutamol and isoproterenol / durability action of the protecting effect / Ratio to isoproterenol (protecting effect): guinea pigs; for durability action of the protecting effect: in words; for Ratio to isoproterenol (protecting effect): isoproterenol = 100
Protocol: Protecting Effect Against The Dyspnea Caused By The Histamine
Male guinea pigs of Hartley strain were used. Aqueous solutions of the compounds to be examined were prepared in various concentrations, and administered orally to the guinea pigs, in a dose of 10 ml/Kg, respectively. After the oral administration, the guinea pigs were taken in a dome. Histamine solution in a concentration of 0.1% was sprayed through a nebulizer at a blow rate of 3500 ml/min. Two symptoms of hypoxia and fit of caughing were used as indices, and a probable appearing time of said two symptoms was watched and observed for 20 minutes from the start of the spraying.
The protecting effect was judged to be effective with the appearing time more than the double of the mean appearing time in 33 examples of the groups wherein physiological saline water was administered.

[2] = test system: air way resistance increased by histamine; experiment: Inhibitory effect on the increasing reaction of the air-way resistance of histamine (Konzett-Rossler), anesthetized dogs; assay type: in vivo
Protocol: Inhibitory Effect On The Increasing Reaction Of The Air-Way Resistance Of Histamine
(§1) Normally healthy dogs (body weights were 10-15 Kg) were used as subject animals, and anesthetized with sodium pentobarbital urethane. The compounds to be examined were injected into the femoral vein of the dog. The inhibitory effect on the increasing reaction of the histamine (10 μg/Kg were administered) to the air way resistance was determined by Konzett-Rossler method.

[3] = Acute toxicity, mice, oral; details: mouse, in vivo, 7 days observation
Text: There was examined and observed the acute toxicity of the compounds to be examined for 7 days in the case of oral administration to mice.

[4] = test system: heart beat numbers of the anesthetized dogs; experiment: Effect on the heart beat numbers, anesthetized dogs; assay type: in vivo; details: intravenous
Protocol: as §1
Using anesthetized dogs as same as the pharmacological experiment 2, and injecting the compounds to be examined into the dogs from the femoral vein thereof, the increasing actions to the heart beat numbers were examined.

[5] = test system: blood pressure in the anesthetized dogs; experiment: Effect on the blood pressure, anesthetized dogs; assay type: in vivo
Protocol: as §1
Effect On The Blood Pressure
Using the anesthetized dogs as same as pharmacological experiment 2, and injecting the compounds to be examined into the dogs from the femoral vein, the effect on the blood pressure was examined.

[6] = test system: heart beat numbers of the guinea pig; experiment: Effect on the heart beat numbers, conscious guinea pigs; assay type: in vivo; details: for increasing action to the heart beat numbers of the guinea pig: calculation from the product of the intensity action with the durability
Protocol: Effect On The Heart Beat Numbers
(1) Conscious guinea pigs
The guinea pigs were used, in which electrodes of stainless steel were pierced and put in both forelegs of the respective guinea pigs under previous anesthesia (after 24 hours from this operation).
The guinea pigs were isolated one by one in observation boxes, recorded their electrocardiogram (the first induction) under quiet circumstances, and heart beat numbers were counted.
All compounds to be examined were administered orally. The recording and measuring were carried out three times before the administration and with the lapse of time until 180 minutes after the administration.
Calculation From The Product Of The Intensity Action With The Durability

[7] = oral, male Hartley guinea pigs, 0.1% histamine spray

Structure (SMILES)	ED50 ([1]; po) [mg/kg]	protecting effect relative to the two controls, salbutamol and isoproterenol ([1]; oral)	durability action of the protecting effect ([1]; oral)	Ratio to isoproterenol (protecting effect) ([1]; oral)	inhibition at 0.003 mg/kg ([2]; Canis lupus familiaris, iv, read-out: inhibitory effect on the increasing reaction of the histamine to the air way resistance) [%]	inhibitory effect on air way resistance, comparison and durability in words ([2]; intravenous, anesthetized dogs, fumarate)	LD50 at 168 h [3] [mg/kg]	dosage showing increasing action to the heart beat numbers [4]	increasing action to the heart beat numbers, comparison in words [4]	dosage showing remarkable depression effect upon the blood pressure ([5]; intravenous, anesthetized dogs)	increasing action to the heart beat numbers of the guinea pig ([6]; 0.3 mg/Kg oral)	increasing action to the heart beat numbers of the guinea pig ([6]; 3 mg/Kg oral)	increasing action to the heart beat numbers of the guinea pig ([6]; 30 mg/Kg oral)	increasing action to the heart beat numbers, in words ([6]; oral, conscious guinea pigs, fumarate)	ED50 [1, 7] [mg/kg]	inhibition at 0.03 mg/kg ([2]; Canis lupus familiaris, 10 min, 30 μg/Kg, intravenous, after 10 minutes, read-out: inhibitory effect on air way resistance 10 minutes after the administration) [%]	minimal effective dose ([2]; Canis lupus familiaris, intravenous, immediately after administration, read-out: dose with distinct inhibitory effect on air way resistance immediately after the administration) [mg/kg]	depression effect on the blood pressure, in words ([5]; dog, in vivo, iv)	durability effect on the blood pressure, in words ([5]; dog, in vivo, iv)
COCc1cc(C(O)CNC(C)Cc2ccc(OC)cc2)ccc1O.O=C(O)/C=C/C(=O)O (stereo not drawn) [Compound A, 1-(4-hydroxy-3-methoxymethylphenyl)-2-(α-methyl-4-methoxyphenethylamino)ethanol fumarate]	0.39	5-7 times	extended obviously longer than those of the two controls	744	> 50	almost same as those of salbutamol	1050	more than 3 μg/Kg	weaker than that of Isoproterenol, and rather more intense than that of Salbutamol	more than 3 μg/Kg	36.8	75.0	93.7	distinct increasing action to the heart beat numbers with the dosage of 0.3 mg/Kg; also recorded: relatively same as that of Salbutamol and weaker than that of Isoproterenol					
COCc1cc(C(O)CNC(C)Cc2ccc3c(c2)OCO3)ccc1O (stereo not drawn) [Compound B, 1-(4-hydroxy-3-methoxymethylphenyl)-2-(α-methyl-3,4-methylenedioxyphenethylamine)ethanol oxalate]		5-7 times	extended obviously longer than those of the two controls	518			1200								0.56				
COCc1cc(C(O)CNC(C)Cc2ccc(O)cc2)ccc1O.O=C(O)C(=O)O (stereo not drawn) [Compound C, 1-(4-hydroxy-3-methoxymethylphenyl)-2-(α-methyl-4-hydroxyphenethylamino)ethanol oxalate]	0.36	5-7 times	extended obviously longer than those of the two controls	806			1200												
CC(C)NCC(O)c1ccc(O)c(O)c1 [Isoproterenol, L-isoproterenol hydrochloride, reference compound]											87.3	86.9	147.0		2.9	10	~0.001	more intense depression effect than that of the compound A of this invention	relatively short in durability effect
CC(C)(C)NCC(O)c1ccc(O)c(CO)c1.Cl (stereo not shown) [Salbutamol, 1-(4-hydroxy-3-hydroxymethylphenyl)-2-(t-butylamino)-ethanol hydrochloride, reference compound]															2.25			rather weaker tendency	
